Article PMC6556873, “Rapid Covalent-Probe Discovery by Electrophile-Fragment Screening” (Journal of the American Chemical Society, 2019)
Where two headings read alike, the source gives them in different places.

Legend:
NUDT7 = molecular target: T1, NUDT7 (Homo sapiens, UniProt P0C024); design: Intact protein LC/MS covalent labelling, fragments in pools of five, 200 uM each, 4 °C; settings: 24 h, 4 °C, pool of five; 200 µM; covalent
T1 construct: residues 14-235, E. coli, pNIC28-Bsa4, N-terminal His6 tag removed by TEV, construct 26672 Da

BSA = molecular target: T2, BSA (Bos taurus, UniProt P02769); design: Intact protein LC/MS covalent labelling, fragments in pools of five, 200 uM each, 4 °C; settings: 24 h, 4 °C, pool of five; 200 µM; covalent
T2 construct: gene ALB

NNMT (hNNMT) = molecular target: T3, NNMT (hNNMT) (Homo sapiens, UniProt P40261); design: Intact protein LC/MS covalent labelling, fragments in pools of five, 200 uM each, 4 °C; settings: 24 h, 4 °C, pool of five; 200 µM; covalent
T3 construct: wild type, N-terminal His6 tag kept (no cleavage described), E. coli, construct 31248 Da
T3 sequence (P40261 1-264): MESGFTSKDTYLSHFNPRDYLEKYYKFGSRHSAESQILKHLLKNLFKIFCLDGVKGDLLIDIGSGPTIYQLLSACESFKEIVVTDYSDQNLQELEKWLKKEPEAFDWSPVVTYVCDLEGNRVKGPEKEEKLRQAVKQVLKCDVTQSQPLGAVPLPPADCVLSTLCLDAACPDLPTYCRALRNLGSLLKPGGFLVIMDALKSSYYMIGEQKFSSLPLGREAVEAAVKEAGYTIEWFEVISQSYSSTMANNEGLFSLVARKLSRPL

PCAF = molecular target: T4, PCAF (Homo sapiens, UniProt Q92831); design: Intact protein LC/MS covalent labelling, fragments in pools of five, 200 uM each, 4 °C; settings: 24 h, 4 °C, pool of five; 200 µM; covalent
T4 construct: gene KAT2B

OTUB2 (OTUB2A) = molecular target: T5, OTUB2 (OTUB2A) (Homo sapiens, UniProt Q96DC9); design: Intact protein LC/MS covalent labelling, fragments in pools of five, 200 uM each, 4 °C; settings: 24 h, 4 °C, pool of five; 200 µM; covalent
T5 construct: full length residues 1-234, E. coli BL21(DE3)-R3, His tag removed by TEV, construct 27312 Da
T5 sequence (Q96DC9 1-234): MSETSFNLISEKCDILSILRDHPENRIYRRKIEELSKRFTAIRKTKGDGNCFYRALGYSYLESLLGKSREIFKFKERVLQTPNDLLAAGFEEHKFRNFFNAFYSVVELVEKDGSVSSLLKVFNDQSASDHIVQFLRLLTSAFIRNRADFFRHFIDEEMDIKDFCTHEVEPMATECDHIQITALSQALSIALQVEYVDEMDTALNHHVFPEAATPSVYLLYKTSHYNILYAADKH

in vitro [1] = assay: in vitro; design: species or system HB2, HEK293; settings: human, ccd841 cells
in vitro [2] = assay: in vitro; design: species or system CCD841, HEK293; settings: human, hb2 cells, read-out: HB-2 Cells Viability (%)
in vitro [3] = assay: in vitro; design: species or system HB2, CCD841; settings: human, hek293 cells

T1 sequence (P0C024 14-235): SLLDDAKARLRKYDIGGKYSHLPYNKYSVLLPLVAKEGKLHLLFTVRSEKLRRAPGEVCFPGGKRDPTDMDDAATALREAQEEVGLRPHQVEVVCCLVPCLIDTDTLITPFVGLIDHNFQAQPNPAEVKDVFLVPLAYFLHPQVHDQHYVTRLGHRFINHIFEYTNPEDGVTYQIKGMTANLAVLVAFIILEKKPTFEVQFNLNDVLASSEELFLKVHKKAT
T2 sequence (P02769 whole entry, the tested form may be a part): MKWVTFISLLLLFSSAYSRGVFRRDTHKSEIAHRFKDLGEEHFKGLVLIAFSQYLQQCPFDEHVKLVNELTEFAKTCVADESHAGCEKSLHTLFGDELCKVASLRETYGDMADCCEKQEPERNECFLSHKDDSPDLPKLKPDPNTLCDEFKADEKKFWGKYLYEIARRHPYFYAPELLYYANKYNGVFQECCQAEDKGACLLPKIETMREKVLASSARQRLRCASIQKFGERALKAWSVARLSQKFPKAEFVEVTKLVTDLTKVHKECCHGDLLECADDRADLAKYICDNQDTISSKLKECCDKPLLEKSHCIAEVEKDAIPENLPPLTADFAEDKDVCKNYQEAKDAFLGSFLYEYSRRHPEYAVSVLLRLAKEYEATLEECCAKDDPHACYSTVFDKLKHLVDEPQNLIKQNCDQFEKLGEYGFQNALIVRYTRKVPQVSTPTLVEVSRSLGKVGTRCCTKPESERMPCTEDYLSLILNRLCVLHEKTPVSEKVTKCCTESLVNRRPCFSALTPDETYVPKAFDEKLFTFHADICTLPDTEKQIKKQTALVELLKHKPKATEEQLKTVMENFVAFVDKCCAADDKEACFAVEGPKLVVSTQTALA
T4 sequence (Q92831 whole entry, the tested form may be a part): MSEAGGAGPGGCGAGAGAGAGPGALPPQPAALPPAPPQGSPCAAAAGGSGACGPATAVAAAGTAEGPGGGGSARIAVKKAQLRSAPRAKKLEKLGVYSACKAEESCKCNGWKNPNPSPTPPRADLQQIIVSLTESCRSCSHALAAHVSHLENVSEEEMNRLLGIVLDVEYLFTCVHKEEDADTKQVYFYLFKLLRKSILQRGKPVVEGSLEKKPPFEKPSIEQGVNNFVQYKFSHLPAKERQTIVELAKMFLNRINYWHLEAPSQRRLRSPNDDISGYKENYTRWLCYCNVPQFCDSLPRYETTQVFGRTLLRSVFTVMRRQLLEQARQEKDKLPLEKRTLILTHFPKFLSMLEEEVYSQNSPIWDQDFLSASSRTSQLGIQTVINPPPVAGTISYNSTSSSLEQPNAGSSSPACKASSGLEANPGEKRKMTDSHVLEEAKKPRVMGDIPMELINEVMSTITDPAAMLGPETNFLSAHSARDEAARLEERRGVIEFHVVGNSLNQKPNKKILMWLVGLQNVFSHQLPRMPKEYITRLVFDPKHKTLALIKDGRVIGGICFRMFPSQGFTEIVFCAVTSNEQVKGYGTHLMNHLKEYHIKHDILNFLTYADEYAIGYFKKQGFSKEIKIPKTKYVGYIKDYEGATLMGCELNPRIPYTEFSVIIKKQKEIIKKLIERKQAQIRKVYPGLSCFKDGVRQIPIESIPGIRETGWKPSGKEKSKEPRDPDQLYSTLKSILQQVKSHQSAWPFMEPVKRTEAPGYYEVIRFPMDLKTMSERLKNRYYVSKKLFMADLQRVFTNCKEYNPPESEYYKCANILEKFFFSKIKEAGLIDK

Q: Which NUDT7 (NUDT7) does the source give for O=C(CCl)Nc1cc([N+](=O)[O-])ccc1Cl [PCM-0102366] here?
A: 0.2

Q: What about the BSA (BSA) of the same compound?
A: 0

Q: And the NNMT (NNMT (hNNMT))?
A: 0.51

Q: What about the PCAF (PCAF) of the same compound?
A: 0

Q: And the OTUB2 (OTUB2 (OTUB2A))?
A: 0.27

Q: And the viability at 48 h, 10 µM (in vitro [1])?
A: 4.3%

Q: And the viability at 48 h, 10 µM (in vitro [2])?
A: 1.3%

Q: And the viability at 48 h, 10 µM (in vitro [3])?
A: 2.6%

Q: Which NUDT7 (NUDT7) does the source give for COc1ccc(Cl)cc1NC(=O)CCl [PCM-0102370] here?
A: 0.23

Q: And the BSA (BSA)?
A: 0

Q: What about the NNMT (NNMT (hNNMT)) of the same compound?
A: 0

Q: What about the PCAF (PCAF) of the same compound?
A: 0

Q: What about the OTUB2 (OTUB2 (OTUB2A)) of the same compound?
A: 0.18

Q: What about the viability at 48 h, 10 µM (in vitro [1]) of the same compound?
A: 34.6%

Q: And the viability at 48 h, 10 µM (in vitro [2])?
A: 3.7%

Q: What about the viability at 48 h, 10 µM (in vitro [3]) of the same compound?
A: 3.3%

Q: With O=C(CCl)N(c1ccccc1)C1C=CS(=O)(=O)C1 (stereo not shown) [PCM-0102372] as the compound, how does the NUDT7 (NUDT7) read?
A: 0.28

Q: What about the BSA (BSA) of the same compound?
A: 0

Q: And the NNMT (NNMT (hNNMT))?
A: 0.28

Q: What about the PCAF (PCAF) of the same compound?
A: 0

Q: And the OTUB2 (OTUB2 (OTUB2A))?
A: 0

Q: And the viability at 48 h, 10 µM (in vitro [1])?
A: 31%

Q: And the viability at 48 h, 10 µM (in vitro [2])?
A: 24.1%

Q: And the viability at 48 h, 10 µM (in vitro [3])?
A: 11.2%

Q: Which results are given for Cl.O=C(CCl)N1CCN(c2ccccc2F)CC1 [PCM-0102373]?
A: NUDT7 (NUDT7): 0; BSA (BSA): 0; NNMT (NNMT (hNNMT)): 0; PCAF (PCAF): 0; OTUB2 (OTUB2 (OTUB2A)): 0; viability at 48 h, 10 µM (in vitro [1]): 79.7%; viability at 48 h, 10 µM (in vitro [2]): 55.8%; viability at 48 h, 10 µM (in vitro [3]): 64.3%

Q: What does the source list for CC(NC(=O)CCl)c1ccc(Br)cc1 (stereo not shown) [PCM-0102374]?
A: NUDT7 (NUDT7): 0.23; BSA (BSA): 0; NNMT (NNMT (hNNMT)): 0.55; PCAF (PCAF): 0; OTUB2 (OTUB2 (OTUB2A)): 0.34; viability at 48 h, 10 µM (in vitro [1]): 73.1%; viability at 48 h, 10 µM (in vitro [2]): 63.8%; viability at 48 h, 10 µM (in vitro [3]): 50%

Q: Which NUDT7 (NUDT7) does the source give for O=C(CCl)Nc1ccccc1N1CCCC1=O [PCM-0102375] here?
A: 0

Q: And the BSA (BSA)?
A: 0

Q: And the NNMT (NNMT (hNNMT))?
A: 0

Q: And the PCAF (PCAF)?
A: 0

Q: What about the OTUB2 (OTUB2 (OTUB2A)) of the same compound?
A: 0.13

Q: And the viability at 48 h, 10 µM (in vitro [1])?
A: 78%

Q: What about the viability at 48 h, 10 µM (in vitro [2]) of the same compound?
A: 79.6%

Q: What about the viability at 48 h, 10 µM (in vitro [3]) of the same compound?
A: 51.9%

Q: What does the source list for Cc1ccc(-c2cc(NC(=O)CCl)on2)cc1 [PCM-0102382]?
A: NUDT7 (NUDT7): 0.81; BSA (BSA): 0; NNMT (NNMT (hNNMT)): 0.64; PCAF (PCAF): 0; OTUB2 (OTUB2 (OTUB2A)): 0.45; viability at 48 h, 10 µM (in vitro [1]): 54.6%; viability at 48 h, 10 µM (in vitro [2]): 42.7%; viability at 48 h, 10 µM (in vitro [3]): 52.2%

Q: With O=C(CCl)N1CCN(Cc2ccc3c(c2)OCCO3)CC1 [PCM-0102386] as the compound, how does the NUDT7 (NUDT7) read?
A: 0

Q: And the BSA (BSA)?
A: 0

Q: And the NNMT (NNMT (hNNMT))?
A: 0

Q: And the PCAF (PCAF)?
A: 0

Q: What about the OTUB2 (OTUB2 (OTUB2A)) of the same compound?
A: 0

Q: And the viability at 48 h, 10 µM (in vitro [1])?
A: 75.9%

Q: What about the viability at 48 h, 10 µM (in vitro [2]) of the same compound?
A: 42.2%

Q: And the viability at 48 h, 10 µM (in vitro [3])?
A: 39.1%

Q: Which NUDT7 (NUDT7) does the source give for O=C(Nc1ccccc1O)C1CCN(C(=O)CCl)CC1 [PCM-0102389] here?
A: 0.1

Q: What about the BSA (BSA) of the same compound?
A: 0

Q: What about the NNMT (NNMT (hNNMT)) of the same compound?
A: 0

Q: And the PCAF (PCAF)?
A: 0

Q: What about the OTUB2 (OTUB2 (OTUB2A)) of the same compound?
A: 0.14

Q: And the viability at 48 h, 10 µM (in vitro [1])?
A: 63%

Q: What about the viability at 48 h, 10 µM (in vitro [2]) of the same compound?
A: 35.7%

Q: And the viability at 48 h, 10 µM (in vitro [3])?
A: 16%

Q: Which NUDT7 (NUDT7) does the source give for Cc1ccccc1C(C)NC(=O)CCl (stereo not shown) [PCM-0102390] here?
A: 0.1

Q: What about the BSA (BSA) of the same compound?
A: 0

Q: And the NNMT (NNMT (hNNMT))?
A: 0.26

Q: And the PCAF (PCAF)?
A: 0

Q: And the OTUB2 (OTUB2 (OTUB2A))?
A: 0.26

Q: What about the viability at 48 h, 10 µM (in vitro [1]) of the same compound?
A: 71.4%

Q: What about the viability at 48 h, 10 µM (in vitro [2]) of the same compound?
A: 92.8%

Q: What about the viability at 48 h, 10 µM (in vitro [3]) of the same compound?
A: 75.8%

Q: With Cl.O=C(CCl)N1CCN(Cc2ccc3c(c2)OCO3)CC1 [PCM-0102397] as the compound, how does the NUDT7 (NUDT7) read?
A: 0

Q: And the BSA (BSA)?
A: 0

Q: What about the NNMT (NNMT (hNNMT)) of the same compound?
A: 0

Q: And the PCAF (PCAF)?
A: 0

Q: What about the OTUB2 (OTUB2 (OTUB2A)) of the same compound?
A: 0

Q: What about the viability at 48 h, 10 µM (in vitro [1]) of the same compound?
A: 67.3%

Q: And the viability at 48 h, 10 µM (in vitro [2])?
A: 20.7%

Q: What about the viability at 48 h, 10 µM (in vitro [3]) of the same compound?
A: 31.7%

Q: Which NUDT7 (NUDT7) does the source give for O=C(CCl)Nc1ccc(C(=O)O)cc1 [PCM-0102400] here?
A: 0

Q: And the BSA (BSA)?
A: 0

Q: What about the NNMT (NNMT (hNNMT)) of the same compound?
A: 0

Q: And the PCAF (PCAF)?
A: 0

Q: What about the OTUB2 (OTUB2 (OTUB2A)) of the same compound?
A: 0

Q: What about the viability at 48 h, 10 µM (in vitro [1]) of the same compound?
A: 72.5%

Q: What about the viability at 48 h, 10 µM (in vitro [2]) of the same compound?
A: 84.1%

Q: What about the viability at 48 h, 10 µM (in vitro [3]) of the same compound?
A: 112%

Q: Which results are given for CN(Cc1ccc(Br)cc1)C(=O)CCl [PCM-0102401]?
A: NUDT7 (NUDT7): 0.58; BSA (BSA): 0; NNMT (NNMT (hNNMT)): 0.53; PCAF (PCAF): 0; OTUB2 (OTUB2 (OTUB2A)): 0; viability at 48 h, 10 µM (in vitro [1]): 32.1%; viability at 48 h, 10 µM (in vitro [2]): 6.8%; viability at 48 h, 10 µM (in vitro [3]): 7.3%

Q: With O=C(CCl)NC1C2CC3CC(C2)CC1C3 (stereo not shown) [PCM-0102404] as the compound, how does the NUDT7 (NUDT7) read?
A: 0

Q: What about the BSA (BSA) of the same compound?
A: 0

Q: What about the NNMT (NNMT (hNNMT)) of the same compound?
A: 0

Q: And the PCAF (PCAF)?
A: 0

Q: And the OTUB2 (OTUB2 (OTUB2A))?
A: 0.33

Q: What about the viability at 48 h, 10 µM (in vitro [1]) of the same compound?
A: 68.9%

Q: What about the viability at 48 h, 10 µM (in vitro [2]) of the same compound?
A: 63.3%

Q: What about the viability at 48 h, 10 µM (in vitro [3]) of the same compound?
A: 90.6%
